Measured values published in paper PMC3598812, “Evaluation of Anti-Hyperalgesic and Analgesic Effects of Two Benzodiazepines in Human Experimental Pain: A Randomized Placebo-Controlled Study” (PLoS ONE, 2013).
Entries after “also recorded” stand apart in the source; their conditions may differ.

Assays:
Assay type in all cases: in vivo, human
[1] = system: healthy male volunteers; test: Conditioned pain modulation (cold pressor test and pressure algometry); conditions: difference in pressure pain detection threshold after vs before cold pressor test, mean (SD)
Source text: This method explores the endogenous modulation of nociceptive input. Under normal conditions, pain after application of a “test” nociceptive stimulus is attenuated by the application of an additional conditioning noxious stimulus to a remote body region, reflecting diffuse endogenous inhibition, [20]. In the present study, pressure pain detection threshold and cold pressure test (see below) were used as test and conditioning stimuli, respectively. An increase in pressure pain detection threshold immediately after cold pressure test was an indication of CPM.
The subjects placed their hand into a container filled with ice water. In order to maximize heterotopic stimulation, the hand contralateral to the side of pressure stimulation was used. The water was regularly mixed to maintain the temperature near to 0°C. The temperature of the water near the hand was monitored by a thermometer with a digital display (±0.1°C). The subjects were asked to keep the hand in the water until they felt an intolerable sensation of pain and were forced to remove the hand from the container, with a maximum time of 2 min.
Pressure pain detection threshold was measured again at the same time as the subject was withdrawing the hand from the water (one single measurement). CPM was measured as the difference in pressure pain detection threshold between measurements after and before the cold pressure test.

[2] = system: healthy male volunteers; test: Area of static hyperalgesia after intradermal capsaicin injection (512 mN von Frey hair); conditions: for Area of static hyperalgesia: single oral dose (clobazam 20 mg, clonazepam 1 mg, tolterodine 1 mg), mean (SD); for Change in the area of static hyperalgesia between 60 min and the measurement after flumazenil: subgroup analysis (n = 8), pairwise comparisons within each drug
Source text: Intradermal injection of capsaicin causes a brief stinging/burning pain at the injection site followed by development of secondary hyperalgesia, i.e. hyperalgesia detected at surrounding (not injected) skin [15], [16]. Secondary hyperalgesia after intradermal capsaicin is the result of sensitization of the central nervous system, which is one of the most relevant aspects of neuroplastic changes. This model was sensitive to the action of GABAergic compounds in animal studies.
The capsaicin solution was prepared by the Hospital Pharmacy and underwent sterile filtration into sterile septum-sealed vials. The sterile solution (1 mg/ml) was placed into sterile syringes and used for intradermal injection at room temperature. The skin temperature was measured using a digital thermometer, and was 32°C+/−1 in all subjects.
Subjects remained semi-supine during the experiment. Before capsaicin injection, the skin of the forearm was cleaned using an antiseptic wipe and allowed to air dry. The injection site was marked midway between the elbow and the wrist. Using a surgical skin marker, 4 lines were drawn through the injection site, so that they intersected the corners of a regular octagon (figure 2). These lines were marked every 0.5 cm from the center to the edges using a predefined grid. […] We determined the area of hyperalgesia by adding the areas of each triangle in which hyperalgesia was recorded.
Using a 1-ml tuberculin syringe fitted with a 27-gauge disposable needle, 100 µl capsaicin were injected […] into the skin, at the intersection of the 4 vectors previously drawn. A white skin elevation appeared during injection ensuring correct injection.
Static mechanical hyperalgesia was judged to be present when the subjects reported that applying a 512 mN von Frey Hair, 5 and 30 minutes after capsaicin injection, elicited pain with an intensity of at least 4 using a numerical rating scale (NRS, whereby 0 = no pain and 10 = worst pain). Only these subjects were included in the study. In order to document pain induction, the subject recorded pain intensity at injection and 5 minutes post-injection using a 10 cm visual analogue pain scale (VAS), whereby 0 = no pain and 10 = worst pain imaginable.
The area of secondary hyperalgesia was assessed using a calibrated 512 mN von Frey hair. The punctuated probe was moved along the 8 radial lines defined above, starting approximately 6 cm away from the site of injection, at each mark in steps of 0.5 cm. The weighted von Frey hair was placed gently on the skin and the load was applied for 2 seconds. The volunteers were asked to report when the pricking sensation changed to a pain sensation. At least 4 seconds elapsed between consecutive stimuli. This procedure was repeated for each vector. The number corresponding to the marker at which sensation changes as described above was noted and the individual numbers were used to calculate the area of hyperalgesia.
The flow of the experiment is illustrated in figure 3. After training, basal values for the pain tests were determined. The study medication was given immediately after the intradermal injection of capsaicin. Thus, basal values were recorded for all tests, except for those related to capsaicin injection. Because of the relatively short duration of hyperalgesia induced by capsaicin, the recordings of basal values before drug administration would yield a too short testing procedure.

[3] = system: healthy male volunteers; test: Intramuscular repeated (5 stimuli) electrical stimulation pain threshold
Source text: The stimulus burst used for single stimulus was repeated 5 times at 2 Hz, at constant intensity. The current intensity of the 5 stimuli was increased from 1 mA in steps of 0.5 mA until the subjects felt pain during the last 2–3 of the 5 stimuli (indicating temporal summation).
A needle was placed in the tibialis anterior muscle, 14 cm distal from the caudal end of the patella and 20 mm in depth. The same single and repeated stimulation patterns and the same procedure described for cutaneous stimulation were used.

[4] = system: healthy male volunteers; test: Cutaneous repeated (20 stimuli) electrical stimulation, VAS; set-up: AUC of VAS during 20 cutaneous electrical stimuli: unit not given beside the values; conditions: mean (SD); for Maximal VAS during 20 cutaneous electrical stimuli: VAS 0-10
Method: The stimulus burst used for single stimulus was repeated for a train of 20 pulses at 2 Hz, at an intensity corresponding to the temporal summation threshold. During this 10 s stimulation, pain intensity was continuously rated by the subject with an electronic VAS, and the area under the curve (AUC) was computed. Additionally, the maximal VAS during stimulation was recorded.

[5] = system: healthy male volunteers; test: Area of dynamic mechanical hyperalgesia after intradermal capsaicin (cotton wool stroking); conditions: single oral dose (clobazam 20 mg, clonazepam 1 mg, tolterodine 1 mg), mean (SD)
Method: The area of dynamic mechanical hyperalgesia was determined by gently stroking a hand-held cotton wool tip on a 1 cm strip of the skin, at a rate of approximately 1 cm/s. Subjects were asked to report when the sensation changed from a non-painful to a painful sensation. The borders of dynamic hyperalgesia were delineated similarly to the determination of static hyperalgesia.

[6] = baseline before medication, per drug session
[7] = single oral dose (clobazam 20 mg, clonazepam 1 mg, tolterodine 1 mg), 120 min after medication
[8] = single oral dose (clobazam 20 mg, clonazepam 1 mg, tolterodine 1 mg), after flumazenil 0.2 mg iv
[9] = single oral dose (clobazam 20 mg, clonazepam 1 mg, tolterodine 1 mg), 30 min after medication
[10] = single oral dose (clobazam 20 mg, clonazepam 1 mg, tolterodine 1 mg), 60 min after medication
[11] = single oral dose (clobazam 20 mg, clonazepam 1 mg, tolterodine 1 mg), 90 min after medication

O=C1CN=C(c2ccccc2Cl)c2cc([N+](=O)[O-])ccc2N1 [Clonazepam] was tested, and the Conditioned pain modulation [1, 6] was 70 (113) kPa, the Conditioned pain modulation [1, 7] was 85 (77) kPa and the Conditioned pain modulation [1, 8] was 74 (86) kPa. For the same compound, the “Change in the area of static hyperalgesia over time” value ([2]; main analysis, pairwise multiple comparisons within each drug) was “no statistically significant increase”, the “Area of static hyperalgesia” value ([2]; 30 min after medication) was 37.9 (13.6) cm^2 and the “Area of static hyperalgesia” value ([2]; 60 min after medication) was 45.6 (15.3) cm^2. The “Area of static hyperalgesia” value ([2]; 90 min after medication) was 43.4 (14.3) cm^2, the “Area of static hyperalgesia” value ([2]; 120 min after medication) was 41.9 (11.6) cm^2 and the “Area of static hyperalgesia” value ([2]; after flumazenil 0.2 mg iv) was 39.4 (12.3) cm^2. For the same compound, the “Change in the area of static hyperalgesia between 60 min and the measurement after flumazenil” value [2] was “Decrease in the area of hyperalgesia after Clonazepam”, the “Change in the area of static hyperalgesia between 60 min and the measurement after flumazenil” value ([2]; listed as clonazepam) was “significantly decreases” and the “Pain threshold after 5 intramuscular electrical stimuli” value ([3]; baseline before medication, per drug session, mean (SD)) was 1.6 (1.1) mA. The “Change in pain threshold after 5 intramuscular electrical stimuli between baseline and 120 minutes” value ([3]; main analysis, pairwise multiple comparison) was “statistically significant increase; also recorded: Significant increase in pain thresholds”, the “Change in pain detection threshold after 5 intramuscular electrical stimuli from baseline to peak value” ([3]; peak value analysis, pairwise comparisons within each drug) was “significant increase; also recorded: Consistent for an increase in pain thresholds after clobazam and clonazepam” and the “Pain threshold after 5 intramuscular electrical stimuli” value ([3]; single oral dose (clobazam 20 mg, clonazepam 1 mg, tolterodine 1 mg), 120 min after medication, mean (SD)) was 2.3 (1.6) mA. The “Pain threshold after 5 intramuscular electrical stimuli” value ([3]; single oral dose (clobazam 20 mg, clonazepam 1 mg, tolterodine 1 mg), after flumazenil 0.2 mg iv, mean (SD)) was 2.9 (2.3) mA, the “Pain threshold after 5 intramuscular electrical stimuli” value ([3]; subgroup analysis (n = 8), 120 minutes, mean) was 2.93 mA and the “Pain threshold after 5 intramuscular electrical stimuli” value ([3]; subgroup analysis (n = 8), after flumazenil administration, mean) was 3.58 mA. The “Pain threshold after 5 intramuscular electrical stimuli” value ([3]; subgroup analysis (n = 8), baseline, mean) was 1.69 mA, the “Maximal VAS during 20 cutaneous electrical stimuli” value [4, 6] was 4.9 (1.6) and the “Maximal VAS during 20 cutaneous electrical stimuli” value [4, 9] was 5.4 (2.0). For the same compound, the “Maximal VAS during 20 cutaneous electrical stimuli” value [4, 10] was 5.0 (2.3), the “Maximal VAS during 20 cutaneous electrical stimuli” value [4, 11] was 4.7 (2.1) and the “Maximal VAS during 20 cutaneous electrical stimuli” value [4, 7] was 4.4 (1.6). The “Maximal VAS during 20 cutaneous electrical stimuli” value [4, 8] was 4.2 (1.6), the “AUC of VAS during 20 cutaneous electrical stimuli” value (shortened to “AUC”) [4, 6] was 359 (144) and the “AUC” value [4, 9] was 352 (131). For the same compound, the “AUC” value [4, 10] was 349 (185), the “AUC” value [4, 11] was 351 (141) and the “AUC” value [4, 7] was 344 (148). For the same compound, the “AUC” value [4, 8] was 322 (137), the “Area of dynamic hyperalgesia” value ([5]; 30 min after medication) was 22.4 (11.2) cm^2 and the “Area of dynamic hyperalgesia” value ([5]; 60 min after medication) was 19.0 (07.8) cm^2. The “Area of dynamic hyperalgesia” value ([5]; 90 min after medication) was 21.7 (12.6) cm^2, the “Area of dynamic hyperalgesia” value ([5]; 120 min after medication) was 16.8 (10.8) cm^2 and the “Area of dynamic hyperalgesia” value ([5]; after flumazenil 0.2 mg iv) was 19.2 (13.1) cm^2.
